Source: patent publication US11559530B2, “Oral testosterone undecanoate therapy” (Lipocine Inc., priority 2016, dated 2023)

Test: Clinical study of oral TU testosterone therapy in hypogonadal males: serum testosterone Cavg and Cmax responder analysis
Format: in vivo, human
Conditions: for Cavg >300 ng/dL ≥75% patients / Cavg >300 ng/dL ≥80% patients / Cmax > 1500 ng/dL <15% patients / Cmax > 1500 ng/dL <20% patients / Cmax > 1800 ng/dL <5% patients / Cmax > 1800 ng/dL <10% patients / Cmax > 2500 ng/dL <2% patients / Cmax > 2500 ng/dL none of patients: with food
Protocol: The dosage form from Example B of Composition 4 with dosing regimen (Regimen #9-16) of dosing category BID-equal dose with daily dose range 150-600 mg were used for a Clinic Study of Testosterone Therapy for hypogonadal males.
The clinical study was a randomized double-blind, placebo-controlled dose escalating study of the safety, efficacy, tolerability, and pharmacokinetics of testosterone therapy in hypogonadal males. This clinic study was a single and multiple, ascending-dose study that was designed to determine the optimal starting, titration (if appropriate), or single fixed dose for safety and efficacy targeted by the US FDA. The study also verified the time for testosterone levels to reach steady state and identified a suitable fixed dose dosing regimen that satisfies an unmet need for safety and efficacy for oral TT.
This study was carried out with conditions of a single-center, randomized, double-blind, placebo-controlled, ascending multiple-dose, and serial-group in adult hypogonadal male subjects. The objectives of this study were: • a) To assess the safety, efficacy, and tolerability of escalating single and multiple oral doses of TU dosage forms in hypogonadal males • b) To determine the pharmacokinetics (PK) of testosterone (T), DHT, TU, DHTU, and estradiol (E2) after single and multiple oral doses of TU dosage forms in hypogonadal males • C) To identify a fixed dose dosing regimen satisfying US FDA targets, without needing to titrate, for restoring serum T levels in hypogonadal males to the normal T range.
The dosing regimen for this clinical study ranged from 150 mg daily dose (75 mg BID dose) to 600 mg daily dose (300 mg BID dose). Observed pharmacokinetic parameters (T, DHT, TU, DHTU, and E2) after single and multiple oral doses of TU dosage forms in the patients were recorded in connection with each daily dose listed in the report.
The overall analyzed results of this clinical study were plotted according to % of patients for safety (Cmax<1,500 ng/dL) and efficacy (Cavg>300 ng/dL) with a variety of dosing regimens. Note that only doses that were multiples of 75 mg were tested in the clinical study, the results predicted for the other doses are estimated from these values.

[1] = Regimen #1, TID-equal dose, TU 75/75/75 mg
[2] = Regimen #2, TID-equal dose, TU 112/112/112 mg
[3] = Regimen #3, TID-equal dose, TU 125/125/125 mg
[4] = Regimen #4, TID-equal dose, TU 150/150/150 mg
[5] = Regimen #5, TID-equal dose, TU 188/188/188 mg
[6] = Regimen #6, TID-equal dose, TU 225/225/225 mg
[7] = Regimen #7, TID-equal dose, TU 237/237/237 mg
[8] = Regimen #8, TID-equal dose, TU 250/250/250 mg
[9] = Regimen #9, BID-equal dose (AM/PM), TU 75/75 mg
[10] = Regimen #10, BID-equal dose (AM/PM), TU 150/150 mg
[11] = Regimen #11, BID-equal dose (AM/PM), TU 215/215 mg
[12] = Regimen #12, BID-equal dose (AM/PM), TU 225/225 mg
[13] = Regimen #13, BID-equal dose (AM/PM), TU 237/237 mg
[14] = Regimen #14, BID-equal dose (AM/PM), TU 250/250 mg
[15] = Regimen #15, BID-equal dose (AM/PM), TU 265/265 mg
[16] = Regimen #16, BID-equal dose (AM/PM), TU 300/300 mg
[17] = Regimen #17, BID-different dose (AM/PM), TU 75/225 mg
[18] = Regimen #18, BID-different dose (AM/PM), TU 75/300 mg
[19] = Regimen #19, BID-different dose (AM/PM), TU 150/225 mg
[20] = Regimen #20, BID-different dose (AM/PM), TU 225/150 mg
[21] = Regimen #21, BID-different dose (AM/PM), TU 225/300 mg
[22] = Regimen #22, BID-different dose (AM/PM), TU 300/75 mg
[23] = Regimen #23, BID-different dose (AM/PM), TU 300/150 mg
[24] = Regimen #24, BID-different dose (AM/PM), TU 300/225 mg

## CCCCCCCCCCC(=O)O[C@H]1CC[C@H]2[C@@H]3CCC4=CC(=O)CC[C@]4(C)[C@H]3CC[C@]12C [TU, testosterone undecanoate]
[1]
  Cavg >300 ng/dL ≥75% patients: No
  Cavg >300 ng/dL ≥80% patients: No
[2]
  Cavg >300 ng/dL ≥75% patients: No
  Cavg >300 ng/dL ≥80% patients: No
[3]
  Cavg >300 ng/dL ≥75% patients: No
  Cavg >300 ng/dL ≥80% patients: No
[4]
  Cavg >300 ng/dL ≥75% patients: Yes
  Cavg >300 ng/dL ≥80% patients: Yes
[5]
  Cavg >300 ng/dL ≥75% patients: Yes
  Cavg >300 ng/dL ≥80% patients: Yes
[6]
  Cavg >300 ng/dL ≥75% patients: Yes
  Cavg >300 ng/dL ≥80% patients: Yes
  Cmax > 1500 ng/dL <15% patients: No
  Cmax > 1500 ng/dL <20% patients: Yes
  Cmax > 1800 ng/dL <5% patients: No
  Cmax > 1800 ng/dL <10% patients: Yes
  Cmax > 2500 ng/dL <2% patients: Yes
  Cmax > 2500 ng/dL none of patients: No
[7]
  Cavg >300 ng/dL ≥75% patients: Yes
  Cavg >300 ng/dL ≥80% patients: Yes
  Cmax > 1500 ng/dL <15% patients: No
  Cmax > 1500 ng/dL <20% patients: Yes
  Cmax > 1800 ng/dL <5% patients: No
  Cmax > 1800 ng/dL <10% patients: Yes
  Cmax > 2500 ng/dL <2% patients: No
  Cmax > 2500 ng/dL none of patients: No
[8]
  Cavg >300 ng/dL ≥75% patients: Yes
  Cavg >300 ng/dL ≥80% patients: Yes
  Cmax > 1500 ng/dL <15% patients: No
  Cmax > 1500 ng/dL <20% patients: No
  Cmax > 1800 ng/dL <5% patients: No
  Cmax > 1800 ng/dL <10% patients: No
  Cmax > 2500 ng/dL <2% patients: No
  Cmax > 2500 ng/dL none of patients: No
[9]
  Cavg >300 ng/dL ≥75% patients: No
  Cavg >300 ng/dL ≥80% patients: No
  Cmax > 1500 ng/dL <15% patients: Yes
  Cmax > 1500 ng/dL <20% patients: Yes
  Cmax > 1800 ng/dL <5% patients: Yes
  Cmax > 1800 ng/dL <10% patients: Yes
  Cmax > 2500 ng/dL <2% patients: Yes
  Cmax > 2500 ng/dL none of patients: Yes
[10]
  Cavg >300 ng/dL ≥75% patients: No
  Cavg >300 ng/dL ≥80% patients: No
  Cmax > 1500 ng/dL <15% patients: Yes
  Cmax > 1500 ng/dL <20% patients: Yes
  Cmax > 1800 ng/dL <5% patients: Yes
  Cmax > 1800 ng/dL <10% patients: Yes
  Cmax > 2500 ng/dL <2% patients: Yes
  Cmax > 2500 ng/dL none of patients: Yes
[11]
  Cavg >300 ng/dL ≥75% patients: Yes
  Cavg >300 ng/dL ≥80% patients: No
  Cmax > 1500 ng/dL <15% patients: Yes
  Cmax > 1500 ng/dL <20% patients: Yes
  Cmax > 1800 ng/dL <5% patients: Yes
  Cmax > 1800 ng/dL <10% patients: Yes
  Cmax > 2500 ng/dL <2% patients: Yes
  Cmax > 2500 ng/dL none of patients: Yes
[12]
  Cavg >300 ng/dL ≥75% patients: Yes
  Cavg >300 ng/dL ≥80% patients: Yes
  Cmax > 1500 ng/dL <15% patients: Yes
  Cmax > 1500 ng/dL <20% patients: Yes
  Cmax > 1800 ng/dL <5% patients: Yes
  Cmax > 1800 ng/dL <10% patients: Yes
  Cmax > 2500 ng/dL <2% patients: Yes
  Cmax > 2500 ng/dL none of patients: Yes
[13]
  Cavg >300 ng/dL ≥75% patients: Yes
  Cavg >300 ng/dL ≥80% patients: Yes
  Cmax > 1500 ng/dL <15% patients: Yes
  Cmax > 1500 ng/dL <20% patients: Yes
  Cmax > 1800 ng/dL <5% patients: Yes
  Cmax > 1800 ng/dL <10% patients: Yes
  Cmax > 2500 ng/dL <2% patients: Yes
  Cmax > 2500 ng/dL none of patients: Yes
[14]
  Cavg >300 ng/dL ≥75% patients: Yes
  Cavg >300 ng/dL ≥80% patients: Yes
  Cmax > 1500 ng/dL <15% patients: No
  Cmax > 1500 ng/dL <20% patients: Yes
  Cmax > 1800 ng/dL <5% patients: Yes
  Cmax > 1800 ng/dL <10% patients: Yes
  Cmax > 2500 ng/dL <2% patients: Yes
  Cmax > 2500 ng/dL none of patients: Yes
[15]
  Cavg >300 ng/dL ≥75% patients: Yes
  Cavg >300 ng/dL ≥80% patients: Yes
  Cmax > 1500 ng/dL <15% patients: No
  Cmax > 1500 ng/dL <20% patients: Yes
  Cmax > 1800 ng/dL <5% patients: No
  Cmax > 1800 ng/dL <10% patients: Yes
  Cmax > 2500 ng/dL <2% patients: Yes
  Cmax > 2500 ng/dL none of patients: No
[16]
  Cavg >300 ng/dL ≥75% patients: Yes
  Cavg >300 ng/dL ≥80% patients: Yes
  Cmax > 1500 ng/dL <15% patients: No
  Cmax > 1500 ng/dL <20% patients: No
  Cmax > 1800 ng/dL <5% patients: No
  Cmax > 1800 ng/dL <10% patients: Yes
  Cmax > 2500 ng/dL <2% patients: Yes
  Cmax > 2500 ng/dL none of patients: No
[17]
  Cavg >300 ng/dL ≥75% patients: No
  Cavg >300 ng/dL ≥80% patients: No
  Cmax > 1500 ng/dL <15% patients: Yes
  Cmax > 1500 ng/dL <20% patients: Yes
  Cmax > 1800 ng/dL <5% patients: Yes
  Cmax > 1800 ng/dL <10% patients: Yes
  Cmax > 2500 ng/dL <2% patients: Yes
  Cmax > 2500 ng/dL none of patients: Yes
[18]
  Cavg >300 ng/dL ≥75% patients: No
  Cavg >300 ng/dL ≥80% patients: No
  Cmax > 1500 ng/dL <15% patients: Yes
  Cmax > 1500 ng/dL <20% patients: Yes
  Cmax > 1800 ng/dL <5% patients: No
  Cmax > 1800 ng/dL <10% patients: Yes
  Cmax > 2500 ng/dL <2% patients: Yes
  Cmax > 2500 ng/dL none of patients: No
[19]
  Cavg >300 ng/dL ≥75% patients: No
  Cavg >300 ng/dL ≥80% patients: No
  Cmax > 1500 ng/dL <15% patients: Yes
  Cmax > 1500 ng/dL <20% patients: Yes
  Cmax > 1800 ng/dL <5% patients: Yes
  Cmax > 1800 ng/dL <10% patients: Yes
  Cmax > 2500 ng/dL <2% patients: Yes
  Cmax > 2500 ng/dL none of patients: Yes
[20]
  Cavg >300 ng/dL ≥75% patients: Yes
  Cavg >300 ng/dL ≥80% patients: No
  Cmax > 1500 ng/dL <15% patients: Yes
  Cmax > 1500 ng/dL <20% patients: Yes
  Cmax > 1800 ng/dL <5% patients: Yes
  Cmax > 1800 ng/dL <10% patients: Yes
  Cmax > 2500 ng/dL <2% patients: Yes
  Cmax > 2500 ng/dL none of patients: Yes
[21]
  Cavg >300 ng/dL ≥75% patients: Yes
  Cavg >300 ng/dL ≥80% patients: Yes
  Cmax > 1500 ng/dL <15% patients: No
  Cmax > 1500 ng/dL <20% patients: No
  Cmax > 1800 ng/dL <5% patients: No
  Cmax > 1800 ng/dL <10% patients: Yes
  Cmax > 2500 ng/dL <2% patients: Yes
  Cmax > 2500 ng/dL none of patients: No
[22]
  Cavg >300 ng/dL ≥75% patients: No
  Cavg >300 ng/dL ≥80% patients: No
  Cmax > 1500 ng/dL <15% patients: No
  Cmax > 1500 ng/dL <20% patients: Yes
  Cmax > 1800 ng/dL <5% patients: No
  Cmax > 1800 ng/dL <10% patients: Yes
[23]
  Cavg >300 ng/dL ≥75% patients: Yes
  Cavg >300 ng/dL ≥80% patients: Yes
[24]
  Cavg >300 ng/dL ≥75% patients: Yes
  Cavg >300 ng/dL ≥80% patients: Yes
Fixed dose, 430 mg TU daily (215 mg BID-equal) to 480 mg TU daily (240 mg BID-equal)
  US FDA T level targets for safety and efficacy: can satisfy US FDA T level targets for safety and efficacy without titration
